Tested on: Pseudomonas aeruginosa
Assay: burn wound infection treated with Nu-3 applied with glycerol polysiloxanes
Assay type: in vivo
Settings: burn wound infections
Source text: A particularly important medical treatment application is the healing effect of some of the hydrophilic substituted polydialkoxysiloxanes on radiation burn injuries. Skin irritation and burning is common in cases where patients undergo radiation treatment associated with certain cancers. Topical application of glycerol substituted polydialkoxysilane compositions relieves pain and accelerates healing compared to treatment with commonly used burn or cortisone ointments. […] Nubiotics are a new class of antibiotic agents with broad spectrum activity.

With `CCCCOP(=O)(O)OC[C@H]1O[C@@H](n2cc(C)c(=O)[nH]c2=O)C[C@@H]1OP(=O)(O)O` [Nu-3, butyl-phosphate-5′-thymidine-3′-phosphate] the “antibacterial effectiveness of Nu-3 when applied with glycerol polysiloxanes” value was “only a slight decrease in antibacterial effectiveness”.

— US8552135B2, “Substituted polyalkoxysiloxane compositions and methods of use” (One Unlimited, Inc., priority 2006, dated 2013)
